Where two headings read alike, the source gives them in different places.
Experiments:
[1] = rats; cited from earlier work
[2] = system: Mycobacterium avium complex (MAC) 104 biofilm; experiment: Cochleate treatment of Mycobacteria biofilm on polarized A549 cells in transwell; type: cell-based; conditions: delivered daily to bottom well, MAC 104 biofilm on A549 cells
Description: A549 alveolar epithelial cells were cultured in a transwell system. A549 cells became polarized after 6 days and integrity. Bacteria were seeded on the top (apical surface) of the cells. Seven days were allowed for biofilm formation.
Mycobacterium avium complex (MAC) 104 (10^5 bacteria) infection inoculum.
0.1 ml of the different treatments were delivered to the bottom well daily. The basolateral surface (bottom) of the cells were immersed in the tissue culture medium present in the bottom well. Three replicas per experimental group were tested in two different experiments.
Biofilm and epithelial cells were lysed and diluted and plated onto 7H10.

[3] = system: Mycobacterium avium complex (MAC)
Description: C57 BL/6 mice were infected with 8.3×10^6 of Mycobacterium avium complex (MAC) intranasally and the infection was allowed to establish for 7 days. Then baseline bacterial load was determined in 10 mice and treatment protocols were initiated. Mice were treated daily for 4 weeks (orally or with intraperitonal injection of free amikacin). Mice were harvested and lung and spleens were removed, homogenized and plated to determine the bacterial load. Experimental groups had 12 mice each.

For `NCC[C@H](O)C(=O)N[C@@H]1C[C@H](N)[C@@H](O[C@H]2O[C@H](CN)[C@@H](O)[C@H](O)[C@H]2O)[C@H](O)[C@H]1O[C@H]1O[C@H](CO)[C@@H](O)[C@H](N)[C@H]1O` [Free amikacin, Amikacin], which “published NOAEL for injected (intravenous) amikacin” value [1] is on record?
The value was 100 mg/kg.

And the “CFU/bacteria, 14 days” value ([2]; 20 μg/ml)?
Its value is 9.1 ± 0.4 × 10^5 CFU.

And the “CFU/bacteria, 14 days” value ([2]; 100 μg/ml)?
Its value is 3.2 ± 0.3 × 10^5 CFU.

What about the bacterial load ([3]; IP 100 mg/Kg, daily for 4 weeks, 100 mg/kg) of the same compound?
Its bacterial load is 5.6 ± 0.4 × 10^3^(2)(3) CFU.

And the bacterial load ([3]; IP 100 mg/Kg, daily for 4 weeks, listed as AMK, 100 mg/kg)?
Its bacterial load is 5.6×10^3 CFU.

And the “kind of effect observed (in words)” value ([3]; daily for 4 weeks)?
The value was “bactericidal”.

And the “toxicity, histopathology including kidneys (in words)” value ([3]; mouse, in vivo)?
Its value is “no toxicity was observed”.

What about the bacterial load ([3]; oral, daily for 4 weeks, dose not given) of the same compound?
Its bacterial load is 2.2 ± 0.5 × 10^5^(1) CFU.
